Measured values: patent US20020061836A1, “Methods for altering SXR activation using peptide mimetic HIV protease inhibitor SXR ligands” (priority 2000, published 2002)

Tests used:
[1] = target: T1, human RXRα ligand binding domain (Homo sapiens, UniProt P19793); test: Gal-L-RXR Gal4 reporter transient transfection assay in CV-1 cells; assay type: cell-based; details: 10 μM paclitaxel
T1 construct: expressed in transfected cells; host or cells: CV-1
T1 sequence (P19793 203-462): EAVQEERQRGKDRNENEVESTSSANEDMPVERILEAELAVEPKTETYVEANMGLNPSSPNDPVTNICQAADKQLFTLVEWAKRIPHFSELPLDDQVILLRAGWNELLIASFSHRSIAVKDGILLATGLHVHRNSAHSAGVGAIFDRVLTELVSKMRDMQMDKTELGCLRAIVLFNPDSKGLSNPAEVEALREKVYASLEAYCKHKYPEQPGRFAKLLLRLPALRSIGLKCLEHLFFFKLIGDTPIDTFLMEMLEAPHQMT
Source text: The Gal4 reporter activity was normalized to the internal β-galactosidase control and the data plotted as fold activation relative to untreated cells. All transfections contained the Gal4 reporter and a β-galactosidase expression vector as an internal control.

human RARα = target: T2, human RARα (Homo sapiens, UniProt P10276); test: Nuclear receptor specificity transfection assay; assay type: cell-based; details: 10 μM paclitaxel
T2 construct: expressed in transfected cells; host or cells: CV-1

mouse PPARα = target: T3, mouse PPARα (Mus musculus, UniProt P23204); test: Nuclear receptor specificity transfection assay; assay type: cell-based; details: 10 μM paclitaxel
T3 construct: expressed in transfected cells; host or cells: CV-1
T3 sequence (P23204 1-468): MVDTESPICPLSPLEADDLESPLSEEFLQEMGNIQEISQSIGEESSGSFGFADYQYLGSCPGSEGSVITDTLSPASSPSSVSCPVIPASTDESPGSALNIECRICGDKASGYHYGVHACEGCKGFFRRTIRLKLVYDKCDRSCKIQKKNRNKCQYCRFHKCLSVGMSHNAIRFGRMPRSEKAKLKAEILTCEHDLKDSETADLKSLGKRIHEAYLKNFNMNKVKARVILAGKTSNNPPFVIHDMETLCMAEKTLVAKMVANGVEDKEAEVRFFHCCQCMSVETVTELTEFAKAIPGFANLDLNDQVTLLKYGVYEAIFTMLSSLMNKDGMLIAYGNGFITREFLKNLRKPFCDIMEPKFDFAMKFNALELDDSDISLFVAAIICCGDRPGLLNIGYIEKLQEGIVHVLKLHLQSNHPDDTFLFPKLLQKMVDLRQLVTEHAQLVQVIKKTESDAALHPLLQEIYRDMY

mouse PPARγ = target: T4, mouse PPARγ (Mus musculus, UniProt P37238); test: Nuclear receptor specificity transfection assay; assay type: cell-based; details: 10 μM paclitaxel
T4 construct: expressed in transfected cells; host or cells: CV-1

mouse PPARδ = target: T5, mouse PPARδ (Mus musculus, UniProt P35396); test: Nuclear receptor specificity transfection assay; assay type: cell-based; details: 10 μM paclitaxel
T5 construct: expressed in transfected cells; host or cells: CV-1
T5 sequence (P35396 1-440): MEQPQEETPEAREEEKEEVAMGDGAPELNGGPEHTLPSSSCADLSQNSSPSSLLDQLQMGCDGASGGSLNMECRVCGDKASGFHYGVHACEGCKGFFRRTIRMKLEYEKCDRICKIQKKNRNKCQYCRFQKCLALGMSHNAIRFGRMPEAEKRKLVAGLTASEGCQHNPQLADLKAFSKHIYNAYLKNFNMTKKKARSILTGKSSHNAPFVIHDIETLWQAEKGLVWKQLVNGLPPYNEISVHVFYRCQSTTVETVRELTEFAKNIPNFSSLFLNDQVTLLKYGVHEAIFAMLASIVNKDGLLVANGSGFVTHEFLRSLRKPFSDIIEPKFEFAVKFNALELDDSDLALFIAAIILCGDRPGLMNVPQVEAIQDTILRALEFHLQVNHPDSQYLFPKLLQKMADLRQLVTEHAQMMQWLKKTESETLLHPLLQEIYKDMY

mouse CARβ = target: T6, mouse CARβ (Mus musculus, UniProt O35627); test: Nuclear receptor specificity transfection assay / LXRE×3-TK-luc reporter with CARβ in CV-1 cells; assay type: cell-based; details: 10 μM paclitaxel
T6 sequence (O35627 1-358): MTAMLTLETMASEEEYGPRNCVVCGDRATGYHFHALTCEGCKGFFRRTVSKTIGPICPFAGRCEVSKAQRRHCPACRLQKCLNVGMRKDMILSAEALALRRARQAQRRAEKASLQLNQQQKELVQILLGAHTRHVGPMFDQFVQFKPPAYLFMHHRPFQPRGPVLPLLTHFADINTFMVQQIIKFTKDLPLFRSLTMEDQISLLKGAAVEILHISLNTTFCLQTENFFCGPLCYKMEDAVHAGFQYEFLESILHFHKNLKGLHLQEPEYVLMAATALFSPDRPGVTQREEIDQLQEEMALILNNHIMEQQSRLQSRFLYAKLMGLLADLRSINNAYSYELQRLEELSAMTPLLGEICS

FXR = target: T7, FXR (Homo sapiens, UniProt Q96RI1); test: Nuclear receptor specificity transfection assay; assay type: cell-based; details: 10 μM paclitaxel
T7 construct: expressed in transfected cells; host or cells: CV-1

[2] = test system: MDR1 protein (P-glycoprotein); test: Western analysis with P-glycoprotein antibody of LS180 cells; assay type: cell-based, human; details: 10 μM, 48 hours
Procedure: Western Blotting was performed according to the following methods. Human LS180 cells in log phase growth were treated for 48 hours with the compounds indicated in the pertinent Figures. The cells were harvested, washed with phosphate buffered saline (PBS) and homogenized using 12-15 strokes of a Wheaton teflon-glass homogenizer. Cell debris was removed by centrifugation at 1500×g for 10 minutes, and the resulting supernatant was sedimented at 150,000×g for one hour at 4° C. to pellet the membranes. The membrane pellets were resuspended in PBS containing 1 mM phenylmethylsulfonyl fluoride and protein concentrations were determined according to standard prior art methods. […] The membranes were blocked with 5% non-fat dry milk in PBS with 0.1% Tween-20 (PBS-T) before incubation with a 1:500 dilution of P-glycoprotein antibody (Ab-1, Oncogene Research Products, Boston, Mass.) in blocking buffer for six hours at room temperature. Following several washes with PBS-T, membranes were incubated with a 1:1000 dilution of horseradish peroxidase-conjugated secondary anti-rabbit IgG antibodies. (Santa Cruz Biotechnology, Santa Cruz, Calif.) in blocking buffer for one hour at room temperature.

[3] = test system: LS180 human colon cancer cells; test: [14C]-paclitaxel efflux from pretreated LS180 cells; assay type: cell-based; details: LS180 cells induced 48 hours with 10 μM paclitaxel, 10 μM docetaxel or 100 nM LG268
Procedure: Taxane-induced drug efflux was measured using pretreated LS180 human colon cancer cells. The rate of drug efflux was measured. […] Individual data points are the means of triplicate determinations, error bars represent standard deviation and the lines are lines of regression. The slope of each line (rate of efflux) was compared to the slope obtained in the control (untreated) cells using an analysis of covariance. […] The entire experiment was performed three times with similar results. […] The cells were then incubated in media supplemented with 10 μM [^14C]-paclitaxel (4.9 μCi/umol, Moravek Biochemicals, Brea, Calif.) for 15 minutes. The uptake of ^14C-paclitaxel reached maximum levels at 10-12 minutes (data not shown). After 15 minutes, the cells were then rapidly centrifuged through silicone oil to remove all traces of extracellular radioactivity, resuspended in fresh media, and cell counts determined. At multiple time points over the next 10 minutes, triplicate aliquots of the cell suspension (approx. 1×10^5 cells/aliquot) were again centrifuged through silicon oil and the radioactivity in the cell pellet measured by quench-corrected liquid scintillation counting. The rate of [^14C]-paclitaxel efflux was determined as the slope of the [^14C]-paclitaxel versus time plots using all data. The slope for each inducer was compared to the slope obtained in the control (untreated) cells using an analysis of covariance.

human ERα = human ERα (Homo sapiens, UniProt P03372); details: 10 μM paclitaxel
[4] = test system: thyroid hormone receptor β (TRβ); details: 10 μM paclitaxel
P-glycoprotein = P-glycoprotein (Mus musculus, UniProt P21447); details: orally administered; cited from earlier work
Chain of P-glycoprotein (P21447 whole entry): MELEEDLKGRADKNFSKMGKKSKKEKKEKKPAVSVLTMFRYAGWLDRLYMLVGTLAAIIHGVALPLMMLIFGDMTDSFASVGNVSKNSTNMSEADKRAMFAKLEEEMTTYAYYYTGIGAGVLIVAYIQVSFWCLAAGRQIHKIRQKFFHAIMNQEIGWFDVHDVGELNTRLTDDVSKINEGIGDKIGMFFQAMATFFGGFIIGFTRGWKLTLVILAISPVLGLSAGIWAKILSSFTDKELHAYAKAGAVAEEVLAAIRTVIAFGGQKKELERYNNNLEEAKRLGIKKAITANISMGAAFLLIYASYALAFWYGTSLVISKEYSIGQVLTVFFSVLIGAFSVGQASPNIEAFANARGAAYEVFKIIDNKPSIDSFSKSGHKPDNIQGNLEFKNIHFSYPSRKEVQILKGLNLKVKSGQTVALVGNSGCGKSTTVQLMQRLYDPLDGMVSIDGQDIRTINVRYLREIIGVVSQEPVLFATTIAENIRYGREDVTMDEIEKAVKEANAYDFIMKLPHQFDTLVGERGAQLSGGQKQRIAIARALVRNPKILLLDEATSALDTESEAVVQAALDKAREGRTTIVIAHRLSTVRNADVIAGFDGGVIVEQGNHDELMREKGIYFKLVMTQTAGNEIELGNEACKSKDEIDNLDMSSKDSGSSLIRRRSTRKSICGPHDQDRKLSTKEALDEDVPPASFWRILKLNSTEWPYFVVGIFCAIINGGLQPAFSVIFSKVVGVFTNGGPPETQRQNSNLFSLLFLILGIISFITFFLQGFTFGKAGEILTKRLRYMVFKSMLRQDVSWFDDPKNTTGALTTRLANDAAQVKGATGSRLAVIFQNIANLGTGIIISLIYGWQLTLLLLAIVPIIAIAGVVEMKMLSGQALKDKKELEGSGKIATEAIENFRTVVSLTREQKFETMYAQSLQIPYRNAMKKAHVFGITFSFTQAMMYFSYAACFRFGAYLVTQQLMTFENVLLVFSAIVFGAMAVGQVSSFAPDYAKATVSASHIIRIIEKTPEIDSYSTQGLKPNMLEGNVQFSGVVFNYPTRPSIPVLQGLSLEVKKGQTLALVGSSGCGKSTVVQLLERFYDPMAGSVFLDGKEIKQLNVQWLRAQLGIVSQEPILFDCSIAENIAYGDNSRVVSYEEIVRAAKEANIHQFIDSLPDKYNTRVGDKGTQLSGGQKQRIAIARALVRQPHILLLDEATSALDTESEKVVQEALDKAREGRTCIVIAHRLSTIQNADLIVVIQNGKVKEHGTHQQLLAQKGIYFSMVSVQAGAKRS

T2 sequence (P10276 whole entry): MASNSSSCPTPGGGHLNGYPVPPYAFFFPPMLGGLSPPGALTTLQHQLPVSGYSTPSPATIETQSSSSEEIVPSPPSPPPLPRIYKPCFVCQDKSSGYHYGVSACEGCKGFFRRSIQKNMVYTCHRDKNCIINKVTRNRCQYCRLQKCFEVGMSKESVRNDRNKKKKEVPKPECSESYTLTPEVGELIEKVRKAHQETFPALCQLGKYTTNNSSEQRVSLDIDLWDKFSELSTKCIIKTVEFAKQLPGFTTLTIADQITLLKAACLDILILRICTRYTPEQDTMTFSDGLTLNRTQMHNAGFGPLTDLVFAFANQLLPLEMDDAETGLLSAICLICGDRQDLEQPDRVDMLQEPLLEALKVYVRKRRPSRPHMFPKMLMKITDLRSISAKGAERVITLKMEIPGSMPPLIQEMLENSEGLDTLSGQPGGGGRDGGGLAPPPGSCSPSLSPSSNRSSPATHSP
T7 sequence (Q96RI1 whole entry, species assumed): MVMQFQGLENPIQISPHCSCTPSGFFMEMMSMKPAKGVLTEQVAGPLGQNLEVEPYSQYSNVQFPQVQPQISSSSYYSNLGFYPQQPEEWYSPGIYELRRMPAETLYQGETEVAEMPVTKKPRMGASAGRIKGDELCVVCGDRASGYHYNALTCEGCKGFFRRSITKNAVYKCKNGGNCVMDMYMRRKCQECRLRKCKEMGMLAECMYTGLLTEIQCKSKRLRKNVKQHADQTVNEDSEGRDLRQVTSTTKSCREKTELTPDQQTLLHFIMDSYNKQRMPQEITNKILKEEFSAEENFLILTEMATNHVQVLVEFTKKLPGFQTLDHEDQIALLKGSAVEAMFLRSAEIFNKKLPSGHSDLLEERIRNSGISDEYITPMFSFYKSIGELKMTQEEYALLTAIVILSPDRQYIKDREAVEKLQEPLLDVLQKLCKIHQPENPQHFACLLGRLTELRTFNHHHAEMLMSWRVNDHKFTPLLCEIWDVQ
Chain of human ERα (P03372 whole entry): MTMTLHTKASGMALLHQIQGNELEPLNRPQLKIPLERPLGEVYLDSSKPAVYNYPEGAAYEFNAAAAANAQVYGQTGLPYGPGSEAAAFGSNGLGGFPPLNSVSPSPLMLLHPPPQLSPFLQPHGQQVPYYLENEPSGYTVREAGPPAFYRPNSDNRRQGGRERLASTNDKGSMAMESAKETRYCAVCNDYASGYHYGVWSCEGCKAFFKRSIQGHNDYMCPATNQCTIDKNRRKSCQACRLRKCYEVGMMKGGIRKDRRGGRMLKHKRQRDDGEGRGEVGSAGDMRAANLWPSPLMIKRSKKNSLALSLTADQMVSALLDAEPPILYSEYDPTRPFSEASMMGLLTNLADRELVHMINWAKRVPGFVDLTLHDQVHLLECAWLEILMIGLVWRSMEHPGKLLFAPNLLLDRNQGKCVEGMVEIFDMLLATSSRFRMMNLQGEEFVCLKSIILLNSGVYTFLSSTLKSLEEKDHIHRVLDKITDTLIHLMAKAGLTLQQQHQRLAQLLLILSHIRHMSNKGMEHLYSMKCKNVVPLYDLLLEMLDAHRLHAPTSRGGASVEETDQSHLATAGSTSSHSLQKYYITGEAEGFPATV
T4 sequence (P37238 whole entry): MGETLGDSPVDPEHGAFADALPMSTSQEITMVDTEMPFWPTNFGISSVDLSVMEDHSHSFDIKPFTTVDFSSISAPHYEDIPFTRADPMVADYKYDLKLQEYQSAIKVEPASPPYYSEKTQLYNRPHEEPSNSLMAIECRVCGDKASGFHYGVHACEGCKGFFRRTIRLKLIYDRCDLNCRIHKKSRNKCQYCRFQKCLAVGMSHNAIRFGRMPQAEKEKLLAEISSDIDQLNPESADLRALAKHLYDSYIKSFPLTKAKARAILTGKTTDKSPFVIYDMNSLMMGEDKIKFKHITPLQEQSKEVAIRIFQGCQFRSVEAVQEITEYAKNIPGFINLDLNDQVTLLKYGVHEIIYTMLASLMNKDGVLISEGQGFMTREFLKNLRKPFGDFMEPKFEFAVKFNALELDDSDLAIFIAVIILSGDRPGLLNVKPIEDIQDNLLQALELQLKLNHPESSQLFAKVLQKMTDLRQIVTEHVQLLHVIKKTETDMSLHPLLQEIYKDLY

- effect on RXR reporter activity [1]: no effect
- effect on RARα reporter activity (human RARα): no effect
- effect on PPARα reporter activity (mouse PPARα): no effect
- effect on PPARγ reporter activity (mouse PPARγ): no effect
- effect on PPARδ reporter activity (mouse PPARδ): no effect
- effect on CARβ reporter activity (mouse CARβ): no effect
- effect on FXR reporter activity (FXR): no effect
- effect on ERα reporter activity (human ERα): no effect
Structure (SMILES): CC(=O)O[C@H]1C(=O)[C@@]2(C)[C@H]([C@H](OC(=O)c3ccccc3)[C@]3(O)C[C@H](OC(=O)[C@H](O)[C@@H](NC(=O)c4ccccc4)c4ccccc4)C(C)=C1C3(C)C)[C@]1(OC(C)=O)CO[C@@H]1C[C@@H]2O [paclitaxel]
- induction of MDR1 protein (P-glycoprotein) expression [2]: much more effective than docetaxel
- rate of [14C]-paclitaxel efflux versus untreated cells [3]: significantly faster
- effect on TRβ reporter activity [4]: no effect
- fecal excretion for which P-glycoprotein is responsible (P-glycoprotein): 85%
